Reference: patent US20230174485A1, “LIPOXYGENASE INHIBITORS” (SRI International, priority 2020, published 2023)
Several values for one entry are separate records, joined by “and”; a condition that tells them apart may be missing. Identical values can stand only once.

Columns and labels:
Assay type in all cases: biochemical
[1] = target: T1, recombinant 12-LOX enzyme (Homo sapiens, UniProt P18054); test: 12-LOX fluorescent assay; conditions: several values in one cell = repeat determinations; read-out: IC50 (μM) values for in vitro lipoxygenase inhibition, 12-LOX
T1 sequence (P18054 1-663): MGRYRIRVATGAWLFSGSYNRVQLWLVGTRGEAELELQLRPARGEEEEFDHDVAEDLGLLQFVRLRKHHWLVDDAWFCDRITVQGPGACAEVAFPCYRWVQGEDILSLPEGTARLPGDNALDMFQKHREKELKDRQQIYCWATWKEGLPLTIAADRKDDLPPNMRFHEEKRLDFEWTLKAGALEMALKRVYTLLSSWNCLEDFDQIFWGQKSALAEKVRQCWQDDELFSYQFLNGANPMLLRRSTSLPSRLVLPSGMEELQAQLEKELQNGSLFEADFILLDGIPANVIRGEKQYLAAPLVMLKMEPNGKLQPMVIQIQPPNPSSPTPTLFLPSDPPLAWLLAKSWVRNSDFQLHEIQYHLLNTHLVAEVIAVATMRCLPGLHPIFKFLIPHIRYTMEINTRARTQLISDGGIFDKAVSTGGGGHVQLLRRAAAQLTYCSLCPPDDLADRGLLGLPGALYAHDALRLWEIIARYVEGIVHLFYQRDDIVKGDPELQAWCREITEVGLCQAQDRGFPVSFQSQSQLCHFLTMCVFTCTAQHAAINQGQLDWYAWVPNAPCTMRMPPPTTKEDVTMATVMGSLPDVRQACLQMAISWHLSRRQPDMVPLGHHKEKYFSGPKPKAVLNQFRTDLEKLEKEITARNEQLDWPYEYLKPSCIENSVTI
Procedure, shortened: (§1)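 Compounds pre-incubated 15 min with 100 nM 12-LOX or 50 nM 15-LOX in 50 mM Tris pH 7.5, 0.05% Tween-20; reaction started with 20 μM AA/LA plus 1 μM DHR123.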

recombinant 5-LOX = target: T2, recombinant 5-LOX (Homo sapiens, UniProt P09917); test: 5-LOX fluorescent assay; conditions: several values in one cell = repeat determinations; read-out: IC50 (μM) values for in vitro lipoxygenase inhibition, 5-LOX
T2 sequence (P09917 1-674): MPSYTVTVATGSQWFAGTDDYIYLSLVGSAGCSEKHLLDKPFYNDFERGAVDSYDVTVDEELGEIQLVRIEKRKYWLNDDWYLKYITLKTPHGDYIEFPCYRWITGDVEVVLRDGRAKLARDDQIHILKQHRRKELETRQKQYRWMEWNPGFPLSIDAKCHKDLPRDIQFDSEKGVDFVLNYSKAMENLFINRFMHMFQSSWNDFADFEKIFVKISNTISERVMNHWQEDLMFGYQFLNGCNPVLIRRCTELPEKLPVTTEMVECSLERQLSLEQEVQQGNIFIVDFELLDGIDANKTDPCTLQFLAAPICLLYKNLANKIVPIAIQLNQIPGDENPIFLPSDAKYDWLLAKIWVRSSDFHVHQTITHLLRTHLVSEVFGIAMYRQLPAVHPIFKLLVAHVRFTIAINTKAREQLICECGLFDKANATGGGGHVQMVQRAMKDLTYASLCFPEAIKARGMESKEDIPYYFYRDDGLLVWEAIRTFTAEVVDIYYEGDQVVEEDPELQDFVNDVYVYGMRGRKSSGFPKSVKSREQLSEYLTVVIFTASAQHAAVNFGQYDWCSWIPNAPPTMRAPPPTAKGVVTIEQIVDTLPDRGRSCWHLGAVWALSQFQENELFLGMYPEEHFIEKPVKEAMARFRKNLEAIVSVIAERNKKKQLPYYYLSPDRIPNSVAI
Procedure, shortened: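 Lysate containing recombinant 5-LOX was pre-incubated 15 min with compounds in 50 mM Tris pH 7.5, 0.1 mM EDTA, 0.3 mM CaCl2. The reaction was started with 20 μM arachidonic acid, 100 μM ATP and 1 μM DHR123.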

[2] = target: T3, recombinant 15-LOX enzyme (Homo sapiens, UniProt P16050); test: 15-LOX fluorescent assay; conditions: several values in one cell = repeat determinations; read-out: IC50 (μM) values for in vitro lipoxygenase inhibition, 15-LOX
T3 sequence (P16050 1-662): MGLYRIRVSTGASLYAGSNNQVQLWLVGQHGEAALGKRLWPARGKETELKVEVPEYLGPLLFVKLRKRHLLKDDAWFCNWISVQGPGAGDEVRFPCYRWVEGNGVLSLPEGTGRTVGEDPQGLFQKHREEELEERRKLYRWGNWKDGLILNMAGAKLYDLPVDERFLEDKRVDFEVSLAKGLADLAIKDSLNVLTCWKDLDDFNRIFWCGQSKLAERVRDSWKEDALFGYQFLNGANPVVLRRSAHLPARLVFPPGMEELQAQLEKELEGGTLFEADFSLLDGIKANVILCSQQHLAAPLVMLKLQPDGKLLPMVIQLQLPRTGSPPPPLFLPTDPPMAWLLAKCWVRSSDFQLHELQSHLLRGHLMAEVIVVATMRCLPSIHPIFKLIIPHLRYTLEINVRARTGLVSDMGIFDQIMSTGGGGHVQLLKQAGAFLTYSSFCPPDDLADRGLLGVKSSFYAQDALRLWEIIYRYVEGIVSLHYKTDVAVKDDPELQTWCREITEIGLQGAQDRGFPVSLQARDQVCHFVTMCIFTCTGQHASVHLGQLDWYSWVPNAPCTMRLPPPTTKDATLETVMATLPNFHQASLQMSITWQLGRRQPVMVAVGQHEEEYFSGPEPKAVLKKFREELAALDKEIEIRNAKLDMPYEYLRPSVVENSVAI
Procedure, shortened: as §1

| SMILES | IC50 [1] | IC50 (recombinant 5-LOX) | IC50 [2] |
| --- | --- | --- | --- |
| Cc1cc2[nH]c3ccc(F)cc3c2cc1NCC1(Cn2cncn2)COC1 [SS20308-0233-01, N-((3-((1H-1,2,4-triazol-1-yl)methyl)oxetan-3-yl)methyl)-6-fluoro-2-methyl-9H-carbazol-3-amine] | 0.03 µM | 0.19 µM | 0.2 µM |
| Fc1cccc2c1[nH]c1cc3c(cc12)CCN3CCn1cncn1 [SS20308-0243-01, 1-(2-(1H-1,2,4-triazol-1-yl)ethyl)-8-fluoro-1,2,3,9-tetrahydropyrrolo[2,3-b]car bazole] | 0.03 µM | 0.2 µM | 1.13 µM |
| CN(C)CCc1cc(Nc2cccc(Cl)c2)cc2c1[nH]c1ccccc12 [SS20308-0258-01, N-(3-chlorophenyl)-1-(2-(dimethylamino)ethyl)-9H-carbazol-3-amine] | 0.16 µM | 0.06 µM and 0.08 µM | 0.09 µM and 0.55 µM |
| CN(C)CCc1cc(Nc2ccc(F)cc2Cl)cc2c1[nH]c1ccccc12 [SS20308-0277-01, N-(2-chloro-4-fluorophenyl)-1-(2-(dimethylamino)ethyl)-9H-carbazol-3-amine] | 0.04 µM | 0.32 µM | 0.57 µM |
| CN(C)CCc1cc(Nc2cccnc2)cc2c1[nH]c1ccccc12 [SS20308-0291-01, 1-(2-(dimethylamino)ethyl)-N-(pyridin-3-yl)-9H-carbazol-3-amine] | 0.05 µM and 0.06 µM | 0.06 µM and 0.12 µM | 0.02 µM and 0.16 µM |
| Fc1ccc2[nH]c3cc(C(F)(F)F)c(NCC4(Cn5cncn5)COC4)cc3c2c1 [SS20308-0295-01, N-((3-((1H-1,2,4-triazol-1-yl)methyl)oxetan-3-yl)methyl)-6-fluoro-2-(trifluoromethyl)-9H-carbazol-3-amine] | 0.22 µM | 0.66 µM | 0.49 µM |
| Fc1cc2[nH]c3ccccc3c2cc1NCC1(Cn2cncn2)COC1 [SS20308-0304-01, N-((3-((1H-1,2,4-triazol-1-yl)methyl)oxetan-3-yl)methyl)-2-fluoro-9H-carbazol-3-amine] | 0.09 µM | 0.2 µM | 0.4 µM |

Second part, the compound after the results:

| IC50 [1] | IC50 (recombinant 5-LOX) | IC50 [2] | SMILES |
| --- | --- | --- | --- |
| 0.05 µM and 0.22 µM | 0.45 µM and 0.56 µM | 0.75 µM and 0.73 µM | Clc1cc2c(cc1NCCn1cncn1)Nc1ccccc1CC2 [SS20308-0251-01, N-(2-(1H-1,2,4-triazol-1-yl)ethyl)-2-chloro-10,11-dihydro-5H-dibenzo[b,f]azepin-3-amine] |
| 0.11 µM | 0.55 µM | 0.55 µM | c1ccc2c(c1)CCc1cc(C3CC3)c(NCCn3cncn3)cc1N2 [SS20308-0269-01, N-(2-(1H-1,2,4-triazol-1-yl)ethyl)-2-cyclopropyl-10,11-dihydro-5H-dibenzo[b,f]azepin-3-amine] |
| 0.1 µM | 0.15 µM | 1.08 µM and 0.9 µM | CN(C)CCCNc1ccc2c(c1)Nc1ccccc1CC2 [SS20308-0270-01, N^1-(10,11-dihydro-5H-dibenzo[b,f]azepin-3-yl)-N^3,N^3-dimethylpropane-1,3-diamine] |
| 0.11 µM and 0.12 µM | 0.15 µM and 0.17 µM | 0.28 µM and 0.32 µM | c1ccc2c(c1)CCc1cc(C3CCCCC3)c(NCCn3cncn3)cc1N2 [SS20308-0271-01, N-(2-(1H-1,2,4-triazol-1-yl)ethyl)-2-cyclohexyl-10,11-dihydro-5H-dibenzo[b,f]azepin-3-amine] |
| 2.66 µM | 5.6 µM | 9.82 µM | Clc1c(NCCn2cncn2)ccc2c1Nc1ccccc1CC2 [SS20308-0273-01, N-(2-(1H-1,2,4-triazol-1-yl)ethyl)-4-chloro-10,11-dihydro-5H-dibenzo [b,f]azepin-3-amine] |
| 0.03 µM and 0.02 µM | 0.13 µM and 0.06 µM | 0.28 µM and 0.1 µM | c1ccc2c(c1)CCc1cc(NCCn3cncn3)ccc1N2 [SS20308-0276-01, N-(2-(1H-1,2,4-triazol-1-yl)ethyl)-10,11-dihydro-5H-dibenzo[b,f]azepin-2-amine] |
| 0.09 µM | 0.12 µM | 0.9 µM | c1ccc2c(c1)CCc1ccc(NCCCN3CCOCC3)cc1N2 [SS20308-0303-01, N-(3-morpholinopropyl)-10,11-dihydro-5H-dibenzo[b,f]azepin-3-amine] |
| 0.14 µM | 0.2 µM | 0.58 µM | c1ccc2c(c1)CCc1cc(C3CCOCC3)c(NCCn3cncn3)cc1N2 [SS20308-0305-01, N-(2-(1H-1,2,4-triazol-1-yl)ethyl)-2-(tetrahydro-2H-pyran-4-yl)-10,11-dihydro-5H-dibenzo[b,f]azepin-3-amine] |
| 0.03 µM | 0.09 µM | 0.15 µM | Fc1c(NCC2(Cn3cncn3)COC2)ccc2[nH]c3ccccc3c12 [SS20308-0312-01, N-((3-((1H-1,2,4-triazol-1-yl)methyl)oxetan-3-yl)methyl)-4-fluoro-9H-carbazol-3-amine] |
